Data published in US12390451B2, “Small molecule inhibitor of the JAK family of kinases” (Janssen Pharmaceutica NV, priority 2021, dated 2025).
Read-outs that look alike come from different tables or passages of the source.

Experiment: Serum and colon concentrations in explant studies SS-1 and SS-2
Assay type: in vivo, C57BL/6 mice
Conditions: for concentration at 4 h: C57BL/6, mouse, po
Experimental: C57BL/6 mice (6 to 8 weeks old) were randomized by weight and assigned to various treatment groups for each study. Mice were dosed orally with indicated doses of compound of Formula I. At the termination of the study, blood was collected via cardiocentesis, serum and washed proximal colon was prepared for PK analysis.
The high colonic and low systemic exposure observed for compound of Formula I implicate the role for colonic drug levels as the key driver of the observed pharmacology.
Data are presented as mean±SEM; N=5/group. BLOQ, below limit of quantification.

concentration at 4 h (colon, 0.25 mg/kg, SS-1, mice, 4 hours post oral dose 0.25 mg/kg, mean±SEM, read-out: Colon concentration): 446 ± 51.5 ng/g
concentration at 4 h (colon, 0.25 mg/kg, SS-2, mice, 4 hours post oral dose 0.25 mg/kg, mean±SEM, read-out: Colon concentration): 262 ± 30.5 ng/g
concentration at 4 h (colon, 2.5 mg/kg, SS-1, mice, 4 hours post oral dose 2.5 mg/kg, mean±SEM, read-out: Colon concentration): 2840 ± 716 ng/g
concentration at 4 h (colon, 2.5 mg/kg, SS-2, mice, 4 hours post oral dose 2.5 mg/kg, mean±SEM, read-out: Colon concentration): 1320 ± 270 ng/g
concentration at 4 h (colon, 5 mg/kg, SS-1, mice, 4 hours post oral dose 5 mg/kg, mean±SEM, read-out: Colon concentration): 4630 ± 705 ng/g
concentration at 4 h (colon, 5 mg/kg, SS-2, mice, 4 hours post oral dose 5 mg/kg, mean±SEM, read-out: Colon concentration): 4670 ± 953 ng/g
concentration at 4 h (colon, 25 mg/kg, SS-1, mice, 4 hours post oral dose 25 mg/kg, mean±SEM, read-out: Colon concentration): 27500 ± 6130 ng/g
concentration at 4 h (colon, 25 mg/kg, SS-2, mice, 4 hours post oral dose 25 mg/kg, mean±SEM, read-out: Colon concentration): 22900 ± 4150 ng/g
concentration at 4 h (serum, 5 mg/kg, SS-2, mice, 4 hours post oral dose 5 mg/kg, mean±SEM, read-out: Serum concentration): 10.3 ± 6.9 nM
concentration at 4 h (serum, 25 mg/kg, SS-1, mice, 4 hours post oral dose 25 mg/kg, mean±SEM, read-out: Serum concentration): 4.9 ± 2.1 nM
concentration at 4 h (serum, 25 mg/kg, SS-2, mice, 4 hours post oral dose 25 mg/kg, mean±SEM, read-out: Serum concentration): 6.3 ± 2.9 nM
concentration at 4 h (serum, SS-1 and SS-2, all oral doses, 4 hours post dose, read-out: systemic (serum) exposure): ≤ 10.3 nM
Serum concentration (SS-1, mice, 4 hours post oral dose 0.25 mg/kg, mean±SEM): BLOQ
Serum concentration (SS-1, mice, 4 hours post oral dose 2.5 mg/kg, mean±SEM): BLOQ
Serum concentration (SS-1, mice, 4 hours post oral dose 5 mg/kg, mean±SEM): BLOQ
Colon concentration (SS-1, mice, 4 hours post oral dose 25 mg/kg, mean±SEM, 25 mg/kg): 27488.1 ± 6128.6 ng/g
Serum concentration (SS-2, mice, 4 hours post oral dose 0.25 mg/kg, mean±SEM): BLOQ
Serum concentration (SS-2, mice, 4 hours post oral dose 2.5 mg/kg, mean±SEM): BLOQ
Colon concentration (SS-2, mice, 4 hours post oral dose 25 mg/kg, mean±SEM, 25 mg/kg): 22929.6 ± 4146.6 ng/g
Structure (SMILES): CC(C)(O)CNC(=O)Cc1nc2cnc3[nH]ccc3c2n1[C@H]1CC[C@H](CC#N)CC1 [Compound of Formula I, 2-(1-((1r,4r)-4-(Cyanomethyl)cyclohexyl)-1,6-dihydroimidazo[4,5-d]pyrrolo[2,3-b]pyridin-2-yl)-N-(2-hydroxy-2-methylpropyl)acetamide]
